Test results as given in ChEMBL document CHEMBL1240429, “N'-[(5-chloro-3-methyl-1-phenyl-1H-pyrazol-4-yl)methylene] 2/4-substituted hydrazides: synthesis and anticonvulsant activity” (Eur J Med Chem, 2010).
Calls of active or inactive are those of the source. The calls are words filed in the database; no cut-off is given here.

Columns and labels:
Mus musculus [1] = test: Anticonvulsant activity in ip dosed albino mouse assessed as protection against scPTZ-induced seizures after 4 hrs; type: functional
Mus musculus [2] = test: Anticonvulsant activity in ip dosed albino mouse assessed as protection against MES-induced seizures after 4 hrs; type: functional
Mus musculus [3] = test: Anticonvulsant activity in ip dosed albino mouse assessed as protection against MES-induced seizures after 30 mins; type: functional; conditions: 0.5 h
Mus musculus [4] = test: Anticonvulsant activity in ip dosed albino mouse assessed as protection against scPTZ-induced seizures after 30 mins; type: functional; conditions: 0.5 h
[5] = Neurotoxicity in ip dosed albino mouse assessed as inability to maintain equilibrium on rotarod after 30 mins by rotarod test; type: toxicity, organism-based; conditions: in vivo

| Compound | ED50 (Mus musculus [1]) | ED50 (Mus musculus [2]) | ED50 (Mus musculus [3]) [mg/kg] | ED50 (Mus musculus [4]) [mg/kg] | TD50 at 0.5 h [5] [mg/kg] |
| --- | --- | --- | --- | --- | --- |
| Cc1nn(-c2ccccc2)c(Cl)c1/C=N/NC(=O)c1ccc([N+](=O)[O-])cc1 | inactive | 300 mg/kg | 100 | 300 | – |
| Cc1nn(-c2ccccc2)c(Cl)c1/C=N/NC(=O)Cc1cccc2ccccc12 | inactive | 100 mg/kg | 100 | 300 | – |
| Cc1nn(-c2ccccc2)c(Cl)c1/C=N/NC(=O)c1ccc(Cl)cc1 | 100 mg/kg | 300 mg/kg | 100 | 100 | 300 |
| Cc1nn(-c2ccccc2)c(Cl)c1/C=N/NC(=O)c1ccccc1 | – | – | – | – | 100 |
| Cc1nn(-c2ccccc2)c(Cl)c1/C=N/NC(=O)c1ccc(F)cc1 | 100 mg/kg | 100 mg/kg | 100 | 100 | – |
| O=C1NC(=O)C(c2ccccc2)(c2ccccc2)N1 [PHENYTOIN] | – | 30 mg/kg | 30 | – | – |
| CCCC(CCC)C(=O)[O-].[Na+] [VALPROATE SODIUM] | inactive | – | – | 300 | – |
| Cc1ccc(C(=O)N/N=C/c2c(C)nn(-c3ccccc3)c2Cl)cc1 | – | – | – | – | 100 |
| Cc1nn(-c2ccccc2)c(Cl)c1/C=N/NC(=O)c1ccc(Cl)cc1Cl | inactive | inactive | 300 | 300 | – |
| Cc1nn(-c2ccccc2)c(Cl)c1/C=N/NC(=O)Cc1ccc(Cl)cc1 | 300 mg/kg | 300 mg/kg | 100 | 100 | 300 |
| Cc1nn(-c2ccccc2)c(Cl)c1/C=N/NC(=O)COc1ccccc1 | – | – | – | – | 300 |
